We go through 49 molecules from patent publication US20120277209A1, “PYRAZINE COMPOUNDS AS PHOSPHODIESTERASE 10 INHIBITORS” (Amgen Inc., priority 2009, published 2012).

Where two headings read alike, the source gives them in different places.

The target of this experiment is PDE10 (UniProt Q9Y233). Briefly: PDE10 enzyme inhibition, IMAP TR-FRET assay (MPDE10A7 Enzyme Activity and Inhibition). The experiment is classed as biochemical. Here is the method:
All compounds were divided in five classes based on their IC50 values against PDE10. The range of the IC50 in each class is as follows:
An IMAP TR-FRET assay was used to analyze the enzyme activity (Molecular Devices Corp., Sunnyvale Calif.). 5 μL of serial diluted PDE10A (BPS Bioscience, San Diego, Calif.) or tissue homogenate was incubated with equal volumes of diluted fluorescein labeled cAMP or cGMP for 60 min in 384-well polystyrene assay plates (Corning, Corning, N.Y.) at room temperature. After incubation, the reaction was stopped by adding 60 μL of diluted binding reagents and was incubated for 3 hours to overnight at room temperature. The plates were read on an Envision (Perkin Elmer, Waltham, Mass.) for time resolved fluorescence resonance energy transfer. The data were analyzed with GraphPad Prism (La Jolla, Calif.).
Enzyme Inhibition. To check the inhibition profile, 5 μL of serial diluted compounds were incubated with 5 μL of diluted PDE10 enzyme (BPS Bioscience, San Diego, Calif.) or tissue homogenate in a 384-well polystyrene assay plate (Corning, Corning, N.Y.) for 30 min at room temperature. After incubation, 10 μL of diluted fluorescein labeled cAMP or cGMP substrate were added and incubated for 60 min at room temperature. The reaction was stopped by adding 60 μL of diluted binding reagents and plates were read on an Envision (Perkin Elmer, Waltham, Mass.) for time resolved fluorescence resonance energy transfer. The data were analyzed with GraphPad Prism (La Jolla, Calif.).
The tabulated IC50 data represent an average IC50 data for each compound.

Where [1] appears, read: IC50 class against PDE10, read-out: IC50.
Setting [2] is: PDE10 enzyme inhibition, average IC50 data for each compound, read-out: Average IC50.
Where [3] appears, read: PDE10 enzyme inhibition, chiral compounds separated from racemic mixtures, read-out: IC50.

As to `CC(C)COc1nccnc1Oc1ccc(C(=O)c2nc3ccccc3[nH]2)cc1` [Example 162, (1H-benzo[d]imidazol-2-yl)(4-(3-isobutoxypyrazin-2-yloxy)phenyl)methanone], the IC50 (usually the concentration that inhibits the measured activity by half) under setting [1] was 1000 to 5000 nM.

Regarding `COC1CCN(c2nccnc2Oc2ccc(Nc3nc4ccccc4s3)cc2)CC1` [Example 92, N-(4-(3-(4-methoxypiperidin-1-yl)pyrazin-2-yloxy)phenyl)-benzo[d]thiazol-2-amine], under setting [1], the IC50 was less than 25 nM.

For the molecule `O=C(c1ccc(Oc2nccnc2OCCN2CCCC2)cc1)c1nc2ccccc2[nH]1` [drawing 856], under setting [2], the IC50 came to 541 nM.

With `O=C(c1ccc(Oc2nccnc2OCc2ccccn2)cc1)c1nc2ccccc2[nH]1` [drawing 849], the half-inhibitory concentration (IC50) under setting [2] turned out to be 1710 nM.

Take `C[C@@H]1CN(c2nccnc2Oc2ccc(C(=O)c3nc4ccccc4[nH]3)cc2)CC(=O)N1` (stereo in doubt): under setting [2], the IC50 worked out at 2.57 nM.

`O=C(c1ccc(Oc2nccnc2OCC2CCOC2)cc1)c1nc2ccccc2[nH]1` (stereo not shown) [Example 171, (1H-benzo[d]imidazol-2-yl)(4-(3-((tetrahydrofuran-3-yl)methoxy)pyrazin-2-yloxy)phenyl)methanone]: under setting [1], the IC50 fell in the range of 100 to 250 nM.

As to `O=C(c1ccc(Oc2nccnc2C2=CCCOC2)cc1)c1nc2ccccc2[nH]1`, the IC50 under setting [2] stood at 16.1 nM.

Consider `O=C(c1ccc(Oc2nccnc2N2CCC(CO)CC2)cc1)c1nc2ccccc2[nH]1`, for which the IC50 under setting [2] is 0.32 nM.

With `CC1(C)C=C(c2nccnc2Oc2ccc(C(=O)c3nc4ccccc4[nH]3)cc2)C(=O)CC1` [drawing 916], the IC50 under setting [2] was 166 nM.

`O=C(c1ccc(Oc2nccnc2OCc2ccccn2)cc1)c1nc2ccccc2[nH]1` [Example 166, (1H-benzo[d]imidazol-2-yl)(4-(3-(pyridin-2-ylmethoxy)pyrazin-2-yloxy)phenyl)methanone]: the IC50 under setting [1] lay in the range of 25 to 100 nM.

For `COC(=O)N1CCC(c2nccnc2Oc2ccc(C(=O)c3nc4ccccc4[nH]3)cc2)CC1` [drawing 971], under setting [2], the IC50 is 0.0615 nM.

With `N#CC1CCN(c2nccnc2Oc2ccc(Nc3nc4ccccc4s3)cc2)C1` (stereo not shown) [Example 84, 1-(3-(4-(benzo[d]thiazol-2-ylamino)phenoxy)pyrazin-2-yl)pyrrolidine-3-carbonitrile], under setting [1], the IC50 was less than 25 nM.

For the molecule `O=C(O)c1ccc(-c2nccnc2Oc2ccc(C(=O)c3nc4ccccc4[nH]3)cc2)cc1` [Example 127, 4-(3-(4-(1H-benzo[d]imidazole-2-carbonyl)phenoxy)pyrazin-2-yl)benzoic acid], the IC50 under setting [1] is less than 25 nM.

Regarding `Fc1ccc2sc(Nc3ccc(Oc4cnccn4)cc3)nc2c1` [drawing 882], the IC50 under setting [2] came out at 12500 nM.

For `O=C1CCC[C@@H](c2nccnc2Oc2ccc(Nc3nc4ccccc4s3)cc2)C1` [Example 281, (R)-3-(3-(4-(benzo[d]thiazol-2-ylamino)phenoxy)pyrazin-2-yl)cyclohexanone], the IC50 under setting [3] was less than 25 nM.

On to `COc1cccc2nc(Nc3ccc(Oc4nccnc4C4CCOCC4)cc3)[nH]c12` [drawing 941], for which the IC50 under setting [2] turned out to be 0.186 nM.

In the case of `O=C(c1ccc(Oc2nccnc2Oc2ccccc2)cc1)c1nc2ccccc2[nH]1` [drawing 850], under setting [2], the 50% inhibitory concentration (IC50) was found to be 2120 nM.

Regarding `Fc1cc(Oc2nccnc2Cl)ccc1Nc1nc2ccccc2s1` [drawing 836], the IC50 under setting [2] was found to be 614 nM.

With `CC(=O)N1CCC(c2nccnc2Oc2ccc(C(=O)c3nc4ccccc4n3C)cc2)CC1` [Example 242, 1-(4-(3-(4-(1-methyl-1H-benzo[d]imidazole-2-carbonyl)phenoxy)pyrazin-2-yl)piperidin-1-yl)ethanone], the IC50 under setting [1] was less than 25 nM.

For the molecule `COCCOc1nccnc1Oc1ccc(C(=O)c2nc3ccccc3[nH]2)cc1` [Example 165, (1H-benzo[d]imidazol-2-yl)(4-(3-(2-methoxyethoxy)pyrazin-2-yloxy)phenyl)methanone], the IC50 under setting [1] was 250 to 1000 nM.

`COc1ccncc1-c1nccnc1Oc1ccc(C(=O)c2nc3ccccc3[nH]2)cc1` [drawing 990]: the IC50 under setting [2] stood at 0.533 nM.

Regarding `O=C(c1ccc(Oc2nccnc2Oc2cccnc2)cc1)c1nc2ccccc2[nH]1` [drawing 851], the IC50 under setting [2] amounted to 51.5 nM.

Turning to `Cc1cc(-c2nccnc2Oc2ccc(Nc3nc4ccccc4s3)cc2)ccn1` [drawing 750], under setting [2], the IC50 worked out at 17.5 nM.

For the molecule `CC(=O)N1CC(c2nccnc2Oc2ccc(C(=O)c3nc4ccccc4[nH]3)cc2)C1` [Example 250, 1-(3-(3-(4-(1H-benzo[d]imidazole-2-carbonyl)phenoxy)pyrazin-2-yl)azetidin-1-yl)ethanone], under setting [1], the IC50 is less than 25 nM.

Consider `O=C(c1ccc(Oc2nccnc2C(=O)NCCc2ccc(C(F)(F)F)cc2)cc1)c1nc2ccccc2[nH]1` [drawing 807], for which the IC50 under setting [2] was 24.6 nM.

Take `CC(C)(O)[C@@H]1CCCN1c1nccnc1Oc1ccc(Nc2nc3ccccc3s2)cc1` [drawing 737]: the IC50 under setting [2] turned out to be 60 nM.

`C[C@H]1CN(c2nccnc2Oc2ccc(Nc3nc4ccccc4s3)cc2)CC(=O)N1` [Example 268, (S)-4-(3-(4-(benzo[d]thiazol-2-ylamino)phenoxy)pyrazin-2-yl)-6-methylpiperazin-2-one]: the IC50 under setting [3] was less than 25 nM.

For the molecule `O=C(c1ccc(Oc2nccnc2-c2ccc[nH]c2=O)cc1)c1nc2ccccc2[nH]1` [drawing 938], the IC50 under setting [2] is 7.08 nM.

For `O[C@H]1CCC[C@H](c2nccnc2Oc2ccc(Nc3nc4ccccc4s3)cc2)C1` [drawing 913], the IC50 under setting [2] was 1.34 nM.

For the molecule `CN(c1ccc(Oc2nccnc2C2CCOCC2)cc1)c1nc2ccccc2s1` [drawing 870], the IC50 under setting [2] came to 11.8 nM.

In the case of `C[C@]1(O)CC[C@H](c2nccnc2Oc2ccc(C(=O)c3nc4ccccc4[nH]3)cc2)CC1` [drawing 922], under setting [2], the IC50 was 0.748 nM.

Consider `c1ccc2sc(Nc3ccc(Oc4nccnc4-c4cnc5[nH]ccc5c4)cc3)nc2c1` [Example 141, N-(4-(3-(1H-pyrrolo[2,3-b]pyridin-5-yl)pyrazin-2-yloxy)phenyl)benzo[d]thiazol-2-amine], for which, under setting [1], the IC50 is 25 to 100 nM.

Consider `Cc1ncccc1-c1nccnc1Oc1ccc(C(=O)c2nc3ccccc3[nH]2)cc1` [drawing 947], for which the IC50 under setting [2] is 2.07 nM.

With `O=C(c1ccc(Oc2nccnc2-c2cccnc2)cc1)c1nc2ccccc2[nH]1` [drawing 754], the IC50 under setting [2] was 8.05 nM.

Take `c1ccc2sc(Nc3ccc(Oc4nccnc4C4CCOCC4)cc3)nc2c1` [drawing 864]: the concentration for half-maximal inhibition (IC50) under setting [2] is 0.606 nM.

For `CC(O)C(=O)N1CCC(c2nccnc2Oc2ccc(Nc3nc4ccccc4s3)cc2)CC1` (stereo not shown) [Example 239, 1-(4-(3-(4-(benzo[d]thiazol-2-ylamino)phenoxy)pyrazin-2-yl)piperidin-1-yl)-2-hydroxypropan-1-one], the IC50 under setting [1] was less than 25 nM.

Turning to `CC(=O)N1CCCC(c2nccnc2Oc2ccc(C(=O)c3nc4ccccc4[nH]3)cc2)C1` (racemic) [Example 251, 1-(3-(3-(4-(1H-benzo[d]imidazole-2-carbonyl)phenoxy)pyrazin-2-yl)piperidin-1-yl)ethanone 2,2,2-trifluoroacetate], the IC50 under setting [1] is less than 25 nM.

`N#C[C@@H]1CCN(c2nccnc2Oc2ccc(C(=O)c3nc4ccccc4[nH]3)cc2)C1` [drawing 828]: the IC50 under setting [2] was found to be 1.76 nM.

With `O=C(c1ccc(Oc2nccnc2[C@H]2CCC[C@H](O)C2)cc1)c1nc2ccccc2[nH]1` [drawing 915], the half-inhibitory concentration (IC50) under setting [2] came out at 1.12 nM.

`c1ccc2sc(Nc3ccc(Oc4nccnc4-c4cccc5ncccc45)cc3)nc2c1` [Example 147, N-(4-(3-(quinolin-5-yl)pyrazin-2-yloxy)phenyl)benzo[d]thiazol-2-amine]: the IC50 under setting [1] fell in the range of 25 to 100 nM.

`O=C(c1ccc(Oc2nccnc2N2CCC[C@H](CCO)C2)cc1)c1nc2ccccc2[nH]1` (stereo in doubt): the 50% inhibitory concentration (IC50) under setting [2] was 1.86 nM.

On to `O=C1CN(c2nccnc2Oc2ccc(Nc3nc4ccccc4s3)cc2)CCN1` [Example 90, 4-(3-(4-(benzo[d]thiazol-2-yl-amino)phenoxy)pyrazin-2-yl)-piperazin-2-one], for which the IC50 under setting [1] was less than 25 nM.

Take `O=C(c1ccc(Oc2nccnc2N2CC[C@@H](CO)C2)cc1)c1nc2ccccc2[nH]1`: under setting [2], the IC50 was determined as 2.05 nM.

For the molecule `COC(=O)c1ccc(-c2nccnc2Oc2ccc(C(=O)c3nc4ccccc4[nH]3)cc2)cc1` [Example 126, methyl 4-(3-(4-(1H-benzo[d]imidazole-2-carbonyl)phenoxy)pyrazin-2-yl)benzoate], the IC50 under setting [1] was less than 25 nM.

For `CC(=O)N1CCC(c2nccnc2Oc2ccc(C(=O)c3nc4ccccc4[nH]3)cc2)CC1` [drawing 889], the IC50 under setting [2] was 0.182 nM.

Turning to `COc1ncccc1-c1nccnc1Oc1ccc(Nc2nc3cc(F)ccc3s2)cc1` [Example 154, 5-fluoro-N-(4-(3-(2-methoxypyridin-3-yl)pyrazin-2-yloxy)phenyl)benzo[d]thiazol-2-amine], the IC50 under setting [1] was in the range of 25 to 100 nM.

Consider `N#CC1(c2nccnc2Oc2ccc(C(=O)c3nc4ccccc4[nH]3)cc2)CCOCC1` [drawing 868], for which, under setting [2], the IC50 turned out to be 2.5 nM.

For `COc1ncccc1-c1nccnc1Oc1ccc(Nc2nc3ccc(F)cc3s2)cc1` [Example 153, 6-fluoro-N-(4-(3-(2-methoxypyridin-3-yl)pyrazin-2-yloxy)phenyl)benzo[d]thiazol-2-amine], the IC50 under setting [1] fell in the range of 25 to 100 nM.

As to `OC1CCN(c2nccnc2Oc2ccc(Nc3nc4ccccc4s3)cc2)CC1` [drawing 717], under setting [2], the IC50 was found to be 8.17 nM.
